Assay in all cases: KINOMEscan
Common to all, as to type: binding
Settings in all cases: read-out: % control activity remaining

For assay [1], the target named is T1, PRKCE (Homo sapiens, UniProt Q02156).
T1 construct: purchased Eurofins DiscoverX KINOMEscan
T1 sequence (Q02156 1-737): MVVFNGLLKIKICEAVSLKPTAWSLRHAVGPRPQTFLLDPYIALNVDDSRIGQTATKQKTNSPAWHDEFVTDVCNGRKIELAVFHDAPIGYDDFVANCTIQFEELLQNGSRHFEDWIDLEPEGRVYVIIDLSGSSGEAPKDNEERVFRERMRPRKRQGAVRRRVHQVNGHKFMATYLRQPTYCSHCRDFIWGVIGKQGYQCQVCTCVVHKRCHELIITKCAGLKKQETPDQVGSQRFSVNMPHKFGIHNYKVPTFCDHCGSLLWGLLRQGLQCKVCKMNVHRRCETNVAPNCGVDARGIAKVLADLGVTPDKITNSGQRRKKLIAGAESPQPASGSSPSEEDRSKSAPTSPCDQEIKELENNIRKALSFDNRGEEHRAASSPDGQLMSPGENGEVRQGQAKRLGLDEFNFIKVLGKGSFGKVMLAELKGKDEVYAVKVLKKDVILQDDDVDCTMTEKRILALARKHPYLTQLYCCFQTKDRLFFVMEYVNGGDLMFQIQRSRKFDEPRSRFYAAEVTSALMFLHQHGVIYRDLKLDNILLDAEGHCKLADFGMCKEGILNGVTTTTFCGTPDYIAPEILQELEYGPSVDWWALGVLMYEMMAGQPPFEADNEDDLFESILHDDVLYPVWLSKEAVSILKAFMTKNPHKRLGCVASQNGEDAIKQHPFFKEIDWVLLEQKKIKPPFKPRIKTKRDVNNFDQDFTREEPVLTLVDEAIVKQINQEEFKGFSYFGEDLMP

For assay [2], the target named is T2, NDR2 (Homo sapiens, UniProt Q9Y2H1).
T2 construct: purchased Eurofins DiscoverX KINOMEscan
T2 sequence (Q9Y2H1 whole entry): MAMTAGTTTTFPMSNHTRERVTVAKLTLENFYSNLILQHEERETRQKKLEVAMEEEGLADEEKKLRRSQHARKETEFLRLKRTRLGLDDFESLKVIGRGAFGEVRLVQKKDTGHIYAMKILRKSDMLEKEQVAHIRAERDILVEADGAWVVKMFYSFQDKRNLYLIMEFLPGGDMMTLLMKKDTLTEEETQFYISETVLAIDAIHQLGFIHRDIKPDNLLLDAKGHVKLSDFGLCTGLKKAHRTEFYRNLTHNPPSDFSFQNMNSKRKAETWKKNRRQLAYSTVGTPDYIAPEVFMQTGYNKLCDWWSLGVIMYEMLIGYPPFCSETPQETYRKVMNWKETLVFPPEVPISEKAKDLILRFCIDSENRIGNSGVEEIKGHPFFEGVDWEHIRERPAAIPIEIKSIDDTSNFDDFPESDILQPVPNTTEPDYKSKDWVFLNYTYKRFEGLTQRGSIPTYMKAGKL

The target of assay [3] is T3, TLK1 (Homo sapiens, UniProt Q9UKI8).
T3 construct: purchased Eurofins DiscoverX KINOMEscan
T3 sequence (Q9UKI8 1-766): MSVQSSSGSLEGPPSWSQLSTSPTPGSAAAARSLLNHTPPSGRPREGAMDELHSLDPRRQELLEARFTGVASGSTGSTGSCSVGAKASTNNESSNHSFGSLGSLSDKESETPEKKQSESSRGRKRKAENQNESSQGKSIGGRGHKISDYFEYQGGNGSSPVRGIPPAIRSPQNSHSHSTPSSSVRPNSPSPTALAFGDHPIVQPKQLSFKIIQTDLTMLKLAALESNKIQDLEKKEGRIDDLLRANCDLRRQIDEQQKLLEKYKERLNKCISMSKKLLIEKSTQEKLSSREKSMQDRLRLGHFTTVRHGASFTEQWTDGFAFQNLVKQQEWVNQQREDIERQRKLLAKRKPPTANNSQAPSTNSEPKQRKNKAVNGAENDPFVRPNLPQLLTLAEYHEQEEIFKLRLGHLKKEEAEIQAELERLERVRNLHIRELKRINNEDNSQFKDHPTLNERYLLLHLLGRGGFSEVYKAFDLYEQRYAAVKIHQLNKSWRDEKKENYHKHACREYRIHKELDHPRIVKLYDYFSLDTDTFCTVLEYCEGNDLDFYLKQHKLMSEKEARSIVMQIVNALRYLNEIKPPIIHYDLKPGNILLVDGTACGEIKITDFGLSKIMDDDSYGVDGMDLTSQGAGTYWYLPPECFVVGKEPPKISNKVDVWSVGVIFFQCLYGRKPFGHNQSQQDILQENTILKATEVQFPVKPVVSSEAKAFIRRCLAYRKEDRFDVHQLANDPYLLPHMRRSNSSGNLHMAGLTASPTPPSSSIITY

Assay [4] has as its target T4, EPHB4 (Homo sapiens, UniProt P54760).
T4 construct: purchased Eurofins DiscoverX KINOMEscan
T4 sequence (P54760 16-987): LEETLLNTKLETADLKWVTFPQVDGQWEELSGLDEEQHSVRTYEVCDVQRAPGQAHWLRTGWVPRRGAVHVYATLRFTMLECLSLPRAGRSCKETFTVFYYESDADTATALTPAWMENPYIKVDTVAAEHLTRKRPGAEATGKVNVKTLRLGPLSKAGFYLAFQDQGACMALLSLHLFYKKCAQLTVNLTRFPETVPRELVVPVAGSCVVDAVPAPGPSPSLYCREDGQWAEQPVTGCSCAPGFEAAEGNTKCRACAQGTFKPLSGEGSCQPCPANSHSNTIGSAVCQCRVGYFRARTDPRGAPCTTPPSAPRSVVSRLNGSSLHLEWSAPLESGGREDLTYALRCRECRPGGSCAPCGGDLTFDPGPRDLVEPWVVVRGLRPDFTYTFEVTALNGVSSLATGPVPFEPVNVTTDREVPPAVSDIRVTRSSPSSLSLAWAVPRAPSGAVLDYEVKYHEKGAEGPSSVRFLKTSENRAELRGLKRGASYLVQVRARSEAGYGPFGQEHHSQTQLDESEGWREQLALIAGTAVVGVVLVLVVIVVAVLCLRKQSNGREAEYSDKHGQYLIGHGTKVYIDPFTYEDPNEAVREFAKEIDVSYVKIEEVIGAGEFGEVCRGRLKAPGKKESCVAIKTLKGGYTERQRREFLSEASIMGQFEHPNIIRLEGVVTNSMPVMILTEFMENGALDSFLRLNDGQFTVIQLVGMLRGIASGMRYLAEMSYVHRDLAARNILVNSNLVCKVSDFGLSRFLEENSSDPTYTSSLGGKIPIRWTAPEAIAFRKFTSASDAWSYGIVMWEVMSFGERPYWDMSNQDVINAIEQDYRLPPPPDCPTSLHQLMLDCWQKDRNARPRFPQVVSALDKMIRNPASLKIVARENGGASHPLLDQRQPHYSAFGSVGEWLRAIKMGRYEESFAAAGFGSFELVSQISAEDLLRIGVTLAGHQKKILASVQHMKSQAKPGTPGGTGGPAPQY

For assay [5], the target named is T5, ACVR2A (Homo sapiens, UniProt P27037).
T5 construct: purchased Eurofins DiscoverX KINOMEscan
T5 sequence (P27037 20-513): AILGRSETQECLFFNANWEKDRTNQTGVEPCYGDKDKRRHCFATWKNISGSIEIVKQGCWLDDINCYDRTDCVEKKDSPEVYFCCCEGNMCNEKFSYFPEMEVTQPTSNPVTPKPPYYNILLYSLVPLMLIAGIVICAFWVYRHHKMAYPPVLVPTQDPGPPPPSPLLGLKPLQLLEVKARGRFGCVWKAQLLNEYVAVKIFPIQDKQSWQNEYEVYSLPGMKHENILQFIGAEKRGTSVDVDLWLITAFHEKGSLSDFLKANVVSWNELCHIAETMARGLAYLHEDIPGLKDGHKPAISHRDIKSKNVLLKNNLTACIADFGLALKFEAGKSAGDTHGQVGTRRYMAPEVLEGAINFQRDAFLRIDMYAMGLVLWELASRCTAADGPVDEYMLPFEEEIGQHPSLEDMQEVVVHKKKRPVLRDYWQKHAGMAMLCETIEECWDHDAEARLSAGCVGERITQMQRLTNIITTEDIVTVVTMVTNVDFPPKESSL

Assay [6] deals with T6, SRPK3 (Homo sapiens, UniProt Q9UPE1).
T6 construct: purchased Eurofins DiscoverX KINOMEscan
T6 sequence (Q9UPE1 whole entry): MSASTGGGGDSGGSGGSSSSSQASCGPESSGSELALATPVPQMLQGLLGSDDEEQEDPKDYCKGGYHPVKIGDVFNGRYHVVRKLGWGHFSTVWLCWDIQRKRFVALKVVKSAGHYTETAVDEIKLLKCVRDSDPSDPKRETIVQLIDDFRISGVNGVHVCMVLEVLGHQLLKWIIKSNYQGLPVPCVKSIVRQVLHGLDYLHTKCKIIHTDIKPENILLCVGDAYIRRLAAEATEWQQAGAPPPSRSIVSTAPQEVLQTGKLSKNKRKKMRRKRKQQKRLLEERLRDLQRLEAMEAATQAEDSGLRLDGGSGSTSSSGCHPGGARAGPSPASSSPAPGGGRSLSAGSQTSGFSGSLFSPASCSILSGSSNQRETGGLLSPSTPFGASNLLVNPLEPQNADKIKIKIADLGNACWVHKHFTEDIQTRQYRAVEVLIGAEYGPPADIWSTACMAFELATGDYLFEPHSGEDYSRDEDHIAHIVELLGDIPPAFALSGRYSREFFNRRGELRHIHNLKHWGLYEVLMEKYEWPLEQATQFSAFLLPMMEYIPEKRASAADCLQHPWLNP

Turning to `Clc1cc(NCC2CC2)c2ncc(-c3ccc4[nH]ncc4c3)n2n1` [compound 2, 6-Chloro-N-(cyclopropylmethyl)-3-(1H-indazol-5-yl)imidazo[1,2-b]pyridazin-8-amine], the remaining binding at 1 µM in assay [1] was 100%; in assay [2], 94%; in assay [3], 96%; in assay [4], 79%; in assay [5] it was 100%; in assay [6] it was 49%.
Consider `O=C(CN1CCOCC1)N[C@H]1CC[C@H](Nc2cc(Cl)nn3c(-c4ccc5[nH]ncc5c4)cnc23)CC1` [compound 26], for which the remaining binding at 1 µM in assay [1] turned out to be 96%; in assay [2], 94%; in assay [3], 87%; in assay [4], 95%; in assay [5] it was 100%; in assay [6], 66%.
As for `CN1CCC(CNc2cc(Cl)nn3c(-c4cc5nc(Nc6ccccc6)[nH]c5cc4F)cnc23)CC1` [compound 31, 6-Chloro-3-(6-fluoro-2-(phenylamino)-1H-benzo[d]imidazol-5-yl)-N-((1-methylpiperidin-4-yl)methyl)imidazo[1,2-b]pyridazin-8-amine], the remaining binding at 1 µM in assay [1] was 86%; in assay [2] it was 100%; in assay [3] it was 93%; in assay [4], 100%; in assay [5], 97%; in assay [6], 100%.

The record behind these values is publication PMC6437697 (Journal of Medicinal Chemistry, 2019).
